As a reminder, the pIC50 is −log10 of the IC50, conventionally taken in molar units.

The results in this text go back to patent publication US10040781B2, “Tank-binding kinase inhibitor compounds” (Gilead Sciences, Inc., priority 2014, dated 2018).

In one experiment the target is TBK1 (Homo sapiens (Human), UniProt Q9UHD2). Kind of experiment: TBK1 TR-FRET enzymatic assay. (Time-resolved FRET reads energy transfer from a long-lived donor to a nearby acceptor.);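 also: phosphorylation of a biotinylated Ser/Thr peptide by purified full-length recombinant TBK1, read by TR-FRET after 240 min at 25 °C, IC50 is the geometric mean of at least four runs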
The next experiment deals with hJAK2 (Homo sapiens (Human), UniProt O60674). As to the kind of experiment: hJAK2 LANCE TR-FRET enzymatic assay. Type of experiment: biochemical. Conditions: read-out: JAK2 IC50.
The target in a further experiment is IKKε (Homo sapiens (Human), UniProt Q14164). As to the kind of experiment: IKKε TR-FRET enzymatic assay. Type of experiment: biochemical. Conditions: read-out: IKKe IC50.

pIC50: −log10 of the molar value.

Sequence of TBK1 (Q9UHD2 whole entry): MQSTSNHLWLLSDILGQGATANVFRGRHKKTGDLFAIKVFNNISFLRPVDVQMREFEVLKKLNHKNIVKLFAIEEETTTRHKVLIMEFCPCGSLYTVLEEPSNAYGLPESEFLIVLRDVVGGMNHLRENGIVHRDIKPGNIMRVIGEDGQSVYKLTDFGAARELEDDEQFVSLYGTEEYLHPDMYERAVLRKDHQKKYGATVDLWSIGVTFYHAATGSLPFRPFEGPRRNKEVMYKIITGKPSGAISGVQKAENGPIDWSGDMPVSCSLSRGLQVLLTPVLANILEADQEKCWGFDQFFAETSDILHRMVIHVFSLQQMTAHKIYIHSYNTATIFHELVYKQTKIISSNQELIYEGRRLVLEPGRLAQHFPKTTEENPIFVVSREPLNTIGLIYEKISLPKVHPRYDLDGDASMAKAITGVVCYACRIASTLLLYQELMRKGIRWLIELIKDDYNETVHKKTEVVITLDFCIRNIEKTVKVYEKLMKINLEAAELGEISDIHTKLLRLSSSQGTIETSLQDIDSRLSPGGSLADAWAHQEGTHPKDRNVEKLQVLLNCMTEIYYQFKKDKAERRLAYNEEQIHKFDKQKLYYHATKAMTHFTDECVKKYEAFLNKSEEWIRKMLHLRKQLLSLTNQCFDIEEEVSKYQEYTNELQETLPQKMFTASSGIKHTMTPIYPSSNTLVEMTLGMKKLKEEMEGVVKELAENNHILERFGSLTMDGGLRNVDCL
Sequence of IKKε (Q14164 whole entry): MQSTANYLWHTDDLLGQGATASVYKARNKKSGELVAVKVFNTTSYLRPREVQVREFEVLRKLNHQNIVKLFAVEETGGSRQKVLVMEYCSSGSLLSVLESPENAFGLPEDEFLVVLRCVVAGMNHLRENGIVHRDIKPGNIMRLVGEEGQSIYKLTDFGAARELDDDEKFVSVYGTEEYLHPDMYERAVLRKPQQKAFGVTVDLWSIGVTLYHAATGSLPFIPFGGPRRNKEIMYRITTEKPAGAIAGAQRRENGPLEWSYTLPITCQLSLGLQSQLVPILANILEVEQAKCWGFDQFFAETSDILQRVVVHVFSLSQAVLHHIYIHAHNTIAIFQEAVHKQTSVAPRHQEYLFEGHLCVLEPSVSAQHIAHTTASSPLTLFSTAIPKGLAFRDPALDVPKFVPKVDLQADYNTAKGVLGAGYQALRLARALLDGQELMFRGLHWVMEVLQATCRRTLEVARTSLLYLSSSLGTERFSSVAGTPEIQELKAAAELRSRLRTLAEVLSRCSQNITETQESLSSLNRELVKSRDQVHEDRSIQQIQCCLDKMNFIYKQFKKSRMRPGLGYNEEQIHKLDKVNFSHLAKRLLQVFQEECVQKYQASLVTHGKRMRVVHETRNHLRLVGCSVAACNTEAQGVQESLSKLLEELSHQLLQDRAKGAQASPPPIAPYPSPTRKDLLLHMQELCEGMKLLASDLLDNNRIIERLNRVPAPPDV
Sequence of hJAK2 (O60674 whole entry): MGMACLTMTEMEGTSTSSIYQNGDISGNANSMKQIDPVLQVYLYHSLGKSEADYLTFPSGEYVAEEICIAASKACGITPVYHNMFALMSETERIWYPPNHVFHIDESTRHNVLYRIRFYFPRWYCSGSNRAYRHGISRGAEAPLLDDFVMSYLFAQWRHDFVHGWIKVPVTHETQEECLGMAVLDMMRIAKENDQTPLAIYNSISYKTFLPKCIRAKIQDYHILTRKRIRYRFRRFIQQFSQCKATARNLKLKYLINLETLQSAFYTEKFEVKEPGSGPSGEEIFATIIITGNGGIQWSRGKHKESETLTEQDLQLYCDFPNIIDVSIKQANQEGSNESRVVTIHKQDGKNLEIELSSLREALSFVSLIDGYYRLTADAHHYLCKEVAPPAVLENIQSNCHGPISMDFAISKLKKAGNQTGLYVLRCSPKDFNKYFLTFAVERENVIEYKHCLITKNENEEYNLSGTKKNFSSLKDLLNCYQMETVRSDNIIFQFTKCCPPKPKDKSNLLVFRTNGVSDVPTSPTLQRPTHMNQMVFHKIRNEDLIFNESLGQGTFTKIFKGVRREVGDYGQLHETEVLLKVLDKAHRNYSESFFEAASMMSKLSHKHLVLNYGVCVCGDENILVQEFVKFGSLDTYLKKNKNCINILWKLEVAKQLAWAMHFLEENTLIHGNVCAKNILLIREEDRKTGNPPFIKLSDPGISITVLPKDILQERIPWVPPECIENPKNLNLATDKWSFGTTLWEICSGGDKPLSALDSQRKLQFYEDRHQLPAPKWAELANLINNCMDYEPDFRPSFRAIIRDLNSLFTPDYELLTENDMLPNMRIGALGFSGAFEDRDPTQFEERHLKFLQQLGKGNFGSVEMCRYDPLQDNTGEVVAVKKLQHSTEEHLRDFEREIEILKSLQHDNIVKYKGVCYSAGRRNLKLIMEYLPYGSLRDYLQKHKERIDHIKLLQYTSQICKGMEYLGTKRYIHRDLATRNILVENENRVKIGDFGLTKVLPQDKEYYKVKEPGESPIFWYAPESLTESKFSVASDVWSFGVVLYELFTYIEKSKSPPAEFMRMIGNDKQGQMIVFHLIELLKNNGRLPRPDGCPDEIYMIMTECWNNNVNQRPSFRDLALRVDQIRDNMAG

`N#Cc1cc(-c2ncnc(Nc3ccc(N4CCN(C5COC5)CC4)c(C#N)c3)n2)ccc1OC1CCOCC1` [Example 38, 5-((4-(3-cyano-4-((tetrahydro-2H-pyran-4-yl)oxy)phenyl)-1,3,5-triazin-2-yl)amino)-2-(4-(oxetan-3-yl)piperazin-1-yl)benzonitrile]: the pIC50 on TBK1 was 8.52; on hJAK2, less than 6.00; on IKKε it was 8.22.

For `C=CC(=O)Nc1ccc(Nc2ncnc(-c3ccc(OC4CCOCC4)c(C#N)c3)n2)cc1` [Example 39, N-(4-((4-(3-cyano-4-((tetrahydro-2H-pyran-4-yl)oxy)phenyl)-1,3,5-triazin-2-yl)amino)phenyl)acrylamide], the pIC50 was 8.22 against TBK1, less than 6.00 on hJAK2 and 7.46 on IKKε.

As to `CC(C)(O)c1ccc(Nc2ncnc(-c3ccc(OC4CCOCC4)c(C#N)c3)n2)cc1` [Example 40, 5-(4-((4-(2-hydroxypropan-2-yl)phenyl)amino)-1,3,5-triazin-2-yl)-2-((tetrahydro-2H-pyran-4-yl)oxy)benzonitrile], the pIC50 was 8.22 at TBK1, less than 6.00 on hJAK2 and 7.64 at IKKε.

Turning to `CNC(=O)N1CCC(Oc2ccc(-c3ncnc(Nc4ccc(N5CCN(C6COC6)CC5)cc4)n3)cc2C#N)CC1` [Example 41, 4-(2-cyano-4-(4-((4-(4-(oxetan-3-yl)piperazin-1-yl)phenyl)amino)-1,3,5-triazin-2-yl)phenoxy)-N-methylpiperidine-1-carboxamide], the results for the pIC50 at TBK1, on hJAK2 and on IKKε were 7.46, less than 6.00 and 6.96, respectively.

Take `N#Cc1cc(-c2ncnc(Nc3ccc(N4CCOCC4)cc3)n2)ccc1NC(=O)C1CC1` [Example 42, N-(2-cyano-4-(4-((4-morpholinophenyl)amino)-1,3,5-triazin-2-yl)phenyl)cyclopropanecarboxamide]: the values for the pIC50 on TBK1, at hJAK2 and at IKKε were 7.46, 7.62 and 7.15, respectively.

On to `N#Cc1cc(-c2ncnc(Nc3ccc(N4CCN(C5COC5)CC4)nc3)n2)ccc1OC1CCOCC1` [Example 43, 5-(4-((6-(4-(oxetan-3-yl)piperazin-1-yl)pyridin-3-yl)amino)-1,3,5-triazin-2-yl)-2-((tetrahydro-2H-pyran-4-yl)oxy)benzonitrile], for which the values for the pIC50 at TBK1, on hJAK2 and at IKKε were 8.15, less than 6.00 and 7.82, respectively.

Consider `CC(C)(O)C(=O)N1CCC(Oc2ccc(-c3ncnc(Nc4ccc(N5CCN(C6COC6)CC5)cc4)n3)cc2C#N)CC1` [Example 45, 2-((1-(2-hydroxy-2-methylpropanoyl)piperidin-4-yl)oxy)-5-(4-((4-(4-(oxetan-3-yl)piperazin-1-yl)phenyl)amino)-1,3,5-triazin-2-yl)benzonitrile], for which the pIC50 at TBK1 is 6.69; on hJAK2, less than 6.00; at IKKε, 6.61.

For `CC(C)NC(=O)c1ccc(Nc2ncnc(-c3ccc(OC4CCOCC4)c(C#N)c3)n2)cc1` [Example 46, 4-((4-(3-cyano-4-((tetrahydro-2H-pyran-4-yl)oxy)phenyl)-1,3,5-triazin-2-yl)amino)-N-isopropylbenzamide], the negative logarithm of the IC50 (pIC50) is 8.52 against TBK1, 6.17 at hJAK2 and 8.05 on IKKε.

On to `CC(C)(O)c1cccc(Nc2ncnc(-c3ccc(OC4CCOCC4)c(C#N)c3)n2)c1` [Example 47, 5-(4-((3-(2-hydroxypropan-2-yl)phenyl)amino)-1,3,5-triazin-2-yl)-2-((tetrahydro-2H-pyran-4-yl)oxy)benzonitrile], for which the pIC50 against TBK1 was 8.70; on hJAK2 it was 6.09; on IKKε, 7.85.

For `N#Cc1cc(-c2ncnc(Nc3cccc(C(O)C(F)(F)F)c3)n2)ccc1OC1CCOCC1` (stereo not drawn) [Example 48, 2-((tetrahydro-2H-pyran-4-yl)oxy)-5-(4-((3-(2,2,2-trifluoro-1-hydroxyethyl)phenyl)amino)-1,3,5-triazin-2-yl)benzonitrile], the values for the pIC50 against TBK1, at hJAK2 and at IKKε were 8.52, less than 6.00 and 7.51, respectively.

As to `N#Cc1cc(-c2ncnc(Nc3ccc(N4CCOCC4)cc3)n2)ccc1OC1CCOCC1` [Example 49, 5-(4-((4-morpholinophenyl)amino)-1,3,5-triazin-2-yl)-2-((tetrahydro-2H-pyran-4-yl)oxy)benzonitrile], the pIC50 is 8.70 on TBK1, 6.36 on hJAK2 and 8.15 at IKKε.

As to `N#Cc1cc(-c2ncnc(Nc3ccc(N4CCN(C5COC5)CC4)cc3)n2)ccc1OC1CCN(C(=O)CNC=O)CC1` [Example 51, N-(2-(4-(2-cyano-4-(4-((4-(4-(oxetan-3-yl)piperazin-1-yl)phenyl)amino)-1,3,5-triazin-2-yl)phenoxy)piperidin-1-yl)-2-oxoethyl)formamide], the pIC50 against TBK1 was 7.59; at hJAK2 it was 6.39; at IKKε, 7.10.

Regarding `CC(=O)NCC(=O)N1CCC(Oc2ccc(-c3ncnc(Nc4ccc(N5CCN(C6COC6)CC5)cc4)n3)cc2C#N)CC1` [Example 52, N-(2-(4-(2-cyano-4-(4-((4-(4-(oxetan-3-yl)piperazin-1-yl)phenyl)amino)-1,3,5-triazin-2-yl)phenoxy)piperidin-1-yl)-2-oxoethyl)acetamide], the pIC50 against TBK1 was 7.19; at hJAK2 it was 6.31; on IKKε, 6.65.

As for `N#Cc1cc(-c2ncnc(Nc3ccc(N4CCOCC4)cc3)n2)ccc1N1CCCC1` [Example 53, 5-(4-((4-morpholinophenyl)amino)-1,3,5-triazin-2-yl)-2-(pyrrolidin-1-yl)benzonitrile], the pIC50 is 8.30 against TBK1, 6.58 on hJAK2 and 7.74 at IKKε.

Consider `N#Cc1cc(-c2ncnc(Nc3ccc(C4CCN(C5COC5)CC4)cc3)n2)ccc1OC1CCOCC1` [Example 54, 5-(4-((4-(1-(oxetan-3-yl)piperidin-4-yl)phenyl)amino)-1,3,5-triazin-2-yl)-2-((tetrahydro-2H-pyran-4-yl)oxy)benzonitrile], for which the pIC50 is 8.70 against TBK1, less than 6.00 on hJAK2 and 8.40 at IKKε.

Take `N#Cc1cc(-c2ncnc(Nc3ccc(C(N)=O)cc3)n2)ccc1OC1CCOCC1` [Example 55]: the pIC50 on TBK1 was 8.70; on hJAK2, less than 6.00; on IKKε it was 8.30.

Take `N#Cc1cc(-c2ncnc(Nc3ccc(C4CCN(C5COC5)CC4)cc3)n2)ccc1OC1CCN(C(=O)CO)CC1` [Example 56, 2-((1-(2-hydroxyacetyl)piperidin-4-yl)oxy)-5-(4-((4-(1-(oxetan-3-yl)piperidin-4-yl)phenyl)amino)-1,3,5-triazin-2-yl)benzonitrile]: the negative logarithm of the IC50 (pIC50) against TBK1 is 8.70; at hJAK2, less than 6.00; at IKKε it was 8.52.

`CS(=O)(=O)c1ccc(Nc2ncnc(-c3ccc(OC4CCN(C(=O)CO)CC4)c(C#N)c3)n2)cc1` [Example 57, 2-((1-(2-hydroxyacetyl)piperidin-4-yl)oxy)-5-(4-((4-(methylsulfonyl)phenyl)amino)-1,3,5-triazin-2-yl)benzonitrile]: the results for the pIC50 at TBK1, on hJAK2 and at IKKε were 8.30, less than 6.00 and 8.10, respectively.

With `N#Cc1cc(-c2ncnc(Nc3ccc(N4CCN(C5COC5)CC4)cc3)n2)ccc1OCC1CC1` [Example 58, 2-(cyclopropylmethoxy)-5-(4-((4-(4-(oxetan-3-yl)piperazin-1-yl)phenyl)amino)-1,3,5-triazin-2-yl)benzonitrile], the negative-log IC50 (pIC50) at TBK1 is 8.70; at hJAK2, 6.34; at IKKε, 8.40.

As to `Cn1ccc(Nc2ncnc(-c3ccc(OC4CCOCC4)c(C#N)c3)n2)n1` [Example 59, 5-(4-((1-methyl-1H-pyrazol-3-yl)amino)-1,3,5-triazin-2-yl)-2-((tetrahydro-2H-pyran-4-yl)oxy)benzonitrile], the negative-log IC50 (pIC50) is 7.26 against TBK1, less than 6.00 on hJAK2 and 7.08 at IKKε.

For the molecule `N#Cc1cc(-c2ncnc(Nc3ccc(N4CCN(C5COC5)CC4)cc3)n2)ccc1OC1CCC(F)(F)CC1` [Example 60, 2-((4,4-difluorocyclohexyl)oxy)-5-(4-((4-(4-(oxetan-3-yl)piperazin-1-yl)phenyl)amino)-1,3,5-triazin-2-yl)benzonitrile], the pIC50 at TBK1 is 8.52; on hJAK2, 6.18; at IKKε, 8.15.

Turning to `CN1CCN(c2cccc(Nc3ncnc(-c4ccc(OC5CCOCC5)c(C#N)c4)n3)c2)CC1` [Example 62, 5-(4-((3-(4-methylpiperazin-1-yl)phenyl)amino)-1,3,5-triazin-2-yl)-2-((tetrahydro-2H-pyran-4-yl)oxy)benzonitrile], the pIC50 at TBK1 was 8.30; at hJAK2 it was less than 6.00; at IKKε, 8.52.

Take `N#Cc1cc(-c2ncnc(Nc3cccc(N4CCOCC4)c3)n2)ccc1OC1CCOCC1` [Example 63, 5-(4-((3-morpholinophenyl)amino)-1,3,5-triazin-2-yl)-2-((tetrahydro-2H-pyran-4-yl)oxy)benzonitrile]: the pIC50 against TBK1 was 8.40; on hJAK2, 6.03; on IKKε, 8.10.

Consider `N#Cc1cc(-c2ncnc(Nc3ccc(C4CCN(CC(F)F)CC4)cc3)n2)ccc1OC1CCOCC1` [Example 65, 5-(4-((4-(1-(2,2-difluoroethyl)piperidin-4-yl)phenyl)amino)-1,3,5-triazin-2-yl)-2-((tetrahydro-2H-pyran-4-yl)oxy)benzonitrile], for which the values for the pIC50 on TBK1, at hJAK2 and on IKKε were 8.40, less than 6.00 and 7.96, respectively.

In the case of `CS(=O)(=O)N1CCN(c2ccc(Nc3ncnc(-c4ccc(OC5CCOCC5)c(C#N)c4)n3)cc2)CC1` [Example 66, 5-(4-((4-(4-(methylsulfonyl)piperazin-1-yl)phenyl)amino)-1,3,5-triazin-2-yl)-2-((tetrahydro-2H-pyran-4-yl)oxy)benzonitrile], the pIC50 on TBK1 was 8.70; at hJAK2 it was 6.46; on IKKε, 8.30.
